Measured values: patent US20220331415A1, “IMMUNOACTIVE MICROPARTICLES AND USES THEREOF” (The Regents of the University of California, priority 2019, published 2022)

B1: IL-2 superkine: artificial variant of IL-2 containing mutations L80F/R81D/L85V/I86V/I92F (SEQ ID NO: 3) (protein)
chain: MGEFAPTSSSTKKTQLQLEHLLLDLQMILNGINNYKNPKLTRMLTFKFYMPKKATELKHLQCLEEELKPLEEVLNLAQSKNFHFDPRDVVSNINVFVLELKGSETTFMCEYADETATIVEFLNRWITFCQSIISTLTH

Columns and labels:
TGF-β receptor = conditions: TGF-β inhibitors; cited from earlier work
[1] = system: Treg formation (Foxp3+ T cells); test: Inhibition of Treg formation: Foxp3 expression in naïve T cells co-cultured with microparticles, flow cytometry; type: cell-based; conditions: same concentration of TGF-β inhibitors, galunisertib compared with SB505124, after 4 days
Text: FIG. 16 further describes TGF-β inhibitors galunisertib (LY2157299) and SB505124 (top). […] Naïve T cells were co-cultured with microparticles and flow cytometry is being used after 4 days to evaluate the intracellular Foxp3 expression.
Thus, in one embodiment, an inhibitor or blocker of TGF-β is included or incorporated into the microparticles of the invention. A TGF-β inhibitor (TGF-βi) such as a TGF-β receptor inhibitor may be used. Non-limiting examples include galinusertib (LY2157299) or SB505124. […] This TGFβ inhibitor used for further studies as described in FIGS. 16-20.
To efficiently stimulate the proliferation of cytotoxic T cells, the microparticles of the invention should suppress formation of regulatory T cells (Tregs) from CD4+ cells attracted to the microparticles. Sustained presence of TGF-β inhibitors can suppress Tregs formation. FIG. 15 and FIG. 16 depict two TGF-β inhibitors used here to show the suppression effect. […] Incorporation of β-cyclodextrin was used to increase the affinity and loading of Galunisertib to microparticles (FIG. 17). β-cyclodextrin was conjugated to Alginate or Alginate-Heparin polymers.

[2] = compared to IL-2, cited from earlier work

Row | Molecule | IC50 (TGF-β receptor) [nM] | Treg suppression (Foxp3 expression, number of Foxp3+ cells) [1] | Treg suppression (Foxp3 expression, number of Foxp3+ cells) ([1]; listed as Galunisertib) | expansion of cytotoxic T cells [2] | toxicity ([2]; lower Treg expansion, reduced pulmonary edema) | antitumor responses ([2]; in vivo)
1 | Cc1cccc(-c2[nH]c(C(C)(C)C)nc2-c2ccc3c(c2)OCO3)n1 [SB505124] | 129 |  |  |  |  | 
2 | Cc1cccc(-c2nn3c(c2-c2ccnc4ccc(C(N)=O)cc24)CCC3)n1 [galunisertib] | 56 | stronger Treg suppression | higher degree of Tregs suppression |  |  | 
3 | B1 |  |  |  | superior expansion | proportionally less toxicity | improved antitumor responses
